The text below walks through data of patent publication US20180319865A1, “Identification of Novel Small Molecule Beta2 Integrin Agonists” (Rush University Medical Center, priority 2016, published 2018).

What is called EC50 is the midpoint of the concentration-response curve. Low readings indicate higher potency in that assay, high ones lower potency in that assay.

For the experiment, the target named is T1, mutant integrin CD11bE320A/CD18 (Homo sapiens, UniProt P11215, E336A).
T1 construct: expressed in transfected cells; host or cells: K562 (ATCC)
T1 sequence (P11215 17-1152 E336A): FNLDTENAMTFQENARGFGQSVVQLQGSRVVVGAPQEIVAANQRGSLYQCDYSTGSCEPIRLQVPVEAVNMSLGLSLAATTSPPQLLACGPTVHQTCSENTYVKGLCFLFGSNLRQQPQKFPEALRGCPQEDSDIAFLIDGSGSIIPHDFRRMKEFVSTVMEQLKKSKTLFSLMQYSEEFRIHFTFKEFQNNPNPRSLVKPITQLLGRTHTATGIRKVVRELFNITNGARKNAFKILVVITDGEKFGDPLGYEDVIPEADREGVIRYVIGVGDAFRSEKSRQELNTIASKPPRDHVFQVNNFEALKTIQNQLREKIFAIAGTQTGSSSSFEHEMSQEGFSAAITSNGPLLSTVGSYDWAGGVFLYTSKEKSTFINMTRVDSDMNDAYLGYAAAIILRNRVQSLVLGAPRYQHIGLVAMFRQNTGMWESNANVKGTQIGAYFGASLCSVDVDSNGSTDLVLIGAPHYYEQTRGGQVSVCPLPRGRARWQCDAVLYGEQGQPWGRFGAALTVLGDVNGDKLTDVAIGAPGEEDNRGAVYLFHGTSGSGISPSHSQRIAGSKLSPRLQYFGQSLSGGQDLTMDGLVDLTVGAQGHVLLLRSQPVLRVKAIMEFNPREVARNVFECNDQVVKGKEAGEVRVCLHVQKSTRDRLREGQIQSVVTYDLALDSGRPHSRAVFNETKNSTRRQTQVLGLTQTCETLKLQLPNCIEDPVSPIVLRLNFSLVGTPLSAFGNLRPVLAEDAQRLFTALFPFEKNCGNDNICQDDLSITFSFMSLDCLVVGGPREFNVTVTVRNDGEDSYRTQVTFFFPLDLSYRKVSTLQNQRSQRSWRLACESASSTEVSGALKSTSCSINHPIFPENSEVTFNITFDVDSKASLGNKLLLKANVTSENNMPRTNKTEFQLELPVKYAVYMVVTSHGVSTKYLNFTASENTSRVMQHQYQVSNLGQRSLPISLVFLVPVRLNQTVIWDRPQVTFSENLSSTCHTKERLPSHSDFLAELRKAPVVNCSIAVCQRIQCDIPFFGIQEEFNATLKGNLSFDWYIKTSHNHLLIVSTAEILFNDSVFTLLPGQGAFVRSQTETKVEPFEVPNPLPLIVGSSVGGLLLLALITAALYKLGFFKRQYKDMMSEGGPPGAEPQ
T1 sequence (P05107 23-769 partner): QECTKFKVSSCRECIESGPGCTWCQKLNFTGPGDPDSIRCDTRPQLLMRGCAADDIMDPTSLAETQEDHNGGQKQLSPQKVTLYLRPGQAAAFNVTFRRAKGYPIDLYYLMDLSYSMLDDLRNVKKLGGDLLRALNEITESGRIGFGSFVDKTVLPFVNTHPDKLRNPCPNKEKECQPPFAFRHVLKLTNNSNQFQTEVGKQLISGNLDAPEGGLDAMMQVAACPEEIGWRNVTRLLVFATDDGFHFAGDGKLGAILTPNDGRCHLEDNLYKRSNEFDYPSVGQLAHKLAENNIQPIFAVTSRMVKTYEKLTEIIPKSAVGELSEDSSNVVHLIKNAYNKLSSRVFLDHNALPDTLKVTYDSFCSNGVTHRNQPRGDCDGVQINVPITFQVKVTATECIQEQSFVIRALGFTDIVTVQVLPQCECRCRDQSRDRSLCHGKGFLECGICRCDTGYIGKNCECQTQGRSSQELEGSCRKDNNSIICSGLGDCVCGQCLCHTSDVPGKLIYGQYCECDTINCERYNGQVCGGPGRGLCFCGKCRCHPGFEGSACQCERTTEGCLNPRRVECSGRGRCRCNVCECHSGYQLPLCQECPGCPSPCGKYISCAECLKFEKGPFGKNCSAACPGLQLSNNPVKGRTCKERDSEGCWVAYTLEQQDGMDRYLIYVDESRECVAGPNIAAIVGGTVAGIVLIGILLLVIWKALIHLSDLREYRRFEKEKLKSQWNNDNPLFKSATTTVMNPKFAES
In words: HTS cell adhesion assay, K562 E320A cells on immobilized fibrinogen. Type of experiment: cell-based. Conditions: Table 3, adhesion to fibrinogen, five point dose-response. The method, then:
K562 cells stably expressing CD11c/CD18 (K562 CD11c/CD18) were generated similarly. […] K562 cells stably transfected with mutant integrin CD11bE320A/CD18 (K562 E320A) were generated according to literature protocols. All cell lines were maintained in Iscove's Modified Dulbecco's Medium (IMDM) supplemented with 10% heat-inactivated fetal bovine serum, 50 IU/mL penicillin and streptomycin and 0.5 mg/mL G418.
Cell adhesion assays with immobilized ligands were performed using the general protocol previously described and as illustrated in FIG. 1 [33]. Assays with all different K562 cell lines (K562, K562 CD11b/CD18, K562 CD11c/CD18 and K562 E320A) were performed in an identical fashion. Briefly, 384-well microplates (Corning 3700) were coated with 15 μg/mL fibrinogen (Fg) ligand in PBS^++ overnight at 4° C. At the same time, anti-CD18 (IB4) mAb was also coated. Subsequently, the coated wells were washed with 1% nonfat milk in TBS at room temperature for 1 hour. Next, the wells were washed 3 times with TBS, and the coated microplates were used in the HTS assays.
K562 CD11b/CD18, K562 CD11bE320A/CD18 and K562 CD11c/CD18 cells were washed with TBS, and cells were transferred to the Fg-coated wells of microplates in the assay buffer (Ca^2+ and Mg^2+ for physiological condition, Mn^2+ as the Positive control). A 1 μL aliquot of the compounds were transferred to each washed well with multichannel pipet from the 384-well plates.
The assay plates were incubated at 37° C. in the presence of small-molecule compounds for 30 min. To dislodge the non-adherent cell, the assay plates were gently inverted and kept in inverted position for 20 min at room temperature.
The cells were fixed with 37% formaldehyde in a small volume and the plates were kept inverted for 1 h. Upon the fixation, the solutions in the well were discarded. Next, the cells were fluorescently labeled with DAPI (0.5 μM final in TBS with 0.1% Triton X-100) and the quantitated with “Opera High Content Screening System” (Perkin Elmer).
Cell-adhesion under positive and negative control conditions was used to define the activity scale; signal corresponding to the number of non-small molecule treated cells adherent in activating buffer condition (in the presence of Mn^2+ ions as agonist, PC) was considered maximum (100% binding) and the signal corresponding to the number of non-small molecule treated cells adherent in basal buffer condition (in the presence of 1 mM each of Ca^2+ and Mg^2+, NC) was considered minimum (0% binding).
`CCS(=O)(=O)N1CCC(C(=O)NCCCN2CCCCCC2)CC1` [Compound 3244583] displayed an EC50 of 9.7 µM.

For the compound `CN(C)c1ccc(NC(=O)Cn2ncn3c(cc4ccccc43)c2=O)cc1` [Compound 3244843], the EC50 was 46.2 µM.

Regarding `COc1ccccc1-c1cc(C(=O)Nc2sc3c(c2C#N)CCC(C)C3)c2ccccc2n1` (stereo not shown) [Compound 3272728], the EC50 came to 10.8 µM.

As to `O=c1cc(CN2CCN(c3cccc(Cl)c3)CC2)c2cc(O)c(-c3ccccc3)cc2o1` [Compound 3287222], the EC50 is 16.5 µM.

As for `C=CCN(CC=C)S(=O)(=O)c1ccc(C(=O)Nc2sc3c(c2C(N)=O)CCCCC3)cc1` [Compound 3395368], the EC50 is 8.78 µM.

Turning to `CCCCn1c(=O)[nH]c(=O)c2c1nc(-c1ccc(-c3ccccc3Br)o1)n2CCOC` [Compound 3908086], the EC50 amounted to 12.2 µM.

`O=C1c2cccc(OCC(=O)N3N=C(c4cccs4)CC3c3ccc(F)cc3)c2CCN1Cc1cccnc1` (stereo not shown) [Compound 4168394]: the EC50 worked out at 8.85 µM.

The compound `COc1ccc(C2=Nc3nc(-c4ccccc4)cn3C(c3ccc(OC)cc3)C2)cc1` (stereo not shown) [Compound 4325421] came in with an EC50 of 999 µM.

For the compound `O=C(NNC(=O)c1cccc(S(=O)(=O)N2CCN(c3ccccc3)CC2)c1)c1ccc(Cl)cc1` [Compound 4412067], it took 11.4 µM to reach a half-maximal effect (EC50).

In turn, `N#Cc1ccc(CSc2nnc(NC(=O)C3CC(=O)N(c4ccc5c(c4)OCCO5)C3)s2)cc1` (stereo not shown) [Compound 4831224] gave an EC50 of 11.1 µM.

As for `N#Cc1cccc(NC(=O)CSc2ccc3c4c(cccc24)C(=O)c2ccccc2-3)c1` [Compound 4835204], the “EC50 E320A” value was “Infinite”.

`COC(=O)c1c(NC(=O)CN2CCC3(O)CCCCC3C2c2ccc(OC)cc2OC)sc(C)c1C` (stereo not shown) [Compound 4971819] yielded an EC50 of 60.2 µM.

With `O=C(NCC1OCCc2ccccc21)c1ccc(NC(=O)c2ccc(Cl)cc2)cc1` (stereo not shown) [Compound 5212443], the EC50 came to 13 µM.

Turning to `COc1ccc(C2C(C(C)=O)=C(C)N=c3s/c(=C/c4ccc5c(c4)OCO5)c(=O)n32)cc1` (stereo not shown) [Compound 5287341], the EC50 came to 8.98 µM.

For `CC(=O)c1cccc(NC(=O)Nc2cc3sccc3n2C)c1` [Compound 5307308], the midpoint of the response, the EC50, lay at 18.7 µM.

In turn, `CCOC(=O)N1CCC(NC(=O)c2cccc3c2C(=O)N(c2ccc(OC)cc2)C3)CC1` [Compound 5307705] displayed an EC50 of 9.93 µM.

The compound `CC1CCN(Cc2ccc(NC(=O)C3CCN(c4nnc(-n5cccc5)s4)CC3)cc2)CC1` [Compound 5309189] came in with an EC50 of 14.2 µM. The EC50 values of the last two compounds are within 1.5-fold of each other.

On to `COc1ccc(N(CC(=O)N/N=C/c2ccc(-c3ccc([N+](=O)[O-])cc3)o2)S(=O)(=O)c2ccc(C)cc2)cc1` [Compound 5334631], for which a half-maximal effect (EC50) was put at 13 µM.

On to `Cc1ccc(C)c(N(CC(=O)N/N=C/c2ccc(-c3ccc([N+](=O)[O-])cc3)o2)S(=O)(=O)c2ccccc2)c1` [Compound 5334671], for which the EC50 worked out at 16.9 µM. The EC50 values of the last two compounds are within 1.5-fold of each other.

`COc1cc(/C=C2/SC(=S)N(c3ccccc3)C2=O)ccc1Oc1nc(N2CCOCC2)nc(N2CCOCC2)n1` [Compound 5343920]: the “EC50 E320A” value is reported as “Very Low”.

In turn, `O=C(Cn1c2ccccc2c(=O)c2ccccc21)N/N=C/c1ccc(N2CCCC2)c([N+](=O)[O-])c1` [Compound 5347156] displayed an EC50 of 13.7 µM.

In turn, `O=C(N/N=C\c1ccc(-c2ccc([N+](=O)[O-])cc2)o1)c1ccc2c(c1)OCO2` [Compound 5497396] yielded an EC50 of 11.7 µM. The EC50 values of the last two compounds are within 1.5-fold of each other.

Take `COc1ccc(/C=C2/C(=O)N(c3nc4ccccc4s3)N=C2CSc2ccc(Cl)cc2)cc1` [Compound 5727347]: the EC50 worked out at 10.2 µM.

`O=C(NCCN1C(=O)S/C(=C\c2ccccc2)C1=O)c1cc(S(=O)(=O)N2CCOCC2)c(Cl)cc1Cl` [Compound 5774232] returned an EC50 of 8.84 µM.

The compound `CN(CCC#N)C(=O)COC(=O)c1c2c(nc3ccccc13)/C(=C/c1ccco1)CC2` [Compound 5801934] yielded an EC50 of 7.85 µM.

In the case of `O=C(COC(=O)c1c2c(nc3ccccc13)/C(=C/c1cccc([N+](=O)[O-])c1)CCC2)NC1CCS(=O)(=O)C1` (stereo not shown) [Compound 5950432], the midpoint of the response, the EC50, lay at 9.83 µM.

For the compound `O=C(N/N=C\C=C\c1ccco1)c1cc(-c2ccc3ccccc3c2)[nH]n1` [Compound 6030986], a half-maximal effect (EC50) was put at 8.1 µM.

The compound `COc1ccccc1CNC(=O)c1ccc2nc3[nH]c4ccccc4c3nc2c1` [Compound 6079611] registered an EC50 of 9.05 µM.

The compound `O=C(CSc1nnc2c3ccccc3c3ccccc3c2n1)Nc1ccccc1F` [Compound 6402388] yielded an EC50 of 11.2 µM.

In turn, `CCC(C)N1C(=O)/C(=C/c2ccc3c(c2)CCN3CCCCl)C(=O)NC1=S` (stereo not shown) [Compound 6513263] came in with an EC50 of 13.9 µM.

`NC(=S)N/N=C/c1coc2cc(Cl)ccc2c1=O` [Compound 6879466] yielded an EC50 of 171 µM. This EC50 is about 12-fold higher than that of the compound before.

`Cc1nc2c(c(=O)n1CCC1=CCCCC1)c1nc3ccccc3nc1n2/N=C/c1ccco1` [Compound 6880170]: the EC50 was 11.3 µM.

As to `COc1cccc(OCc2cc(/C=N/NC(=O)c3nc(Cl)c(Cl)c(N)c3Cl)ccc2OC)c1` [Compound 6881723], a half-maximal response (EC50) required 7.33 µM. Compared with the last compound, the EC50 is about 1.5-fold lower.

`COCCNC(=S)N/N=C/c1ccc(OCc2ccc(C(=O)OC)cc2)cc1` [Compound 6892710]: the response was half-maximal at 12.4 µM (EC50).

In the case of `COc1cccc2sc(Nc3nc(-c4cc5ccccc5oc4=O)cs3)nc12` [Compound 7109922], the EC50 amounted to 8.76 µM.

`O=C(Cc1cccs1)Nc1nnc(SCc2cccc3ccccc23)s1` [Compound 7191378] showed an EC50 of 8.13 µM.

Compound `CC(=O)c1ccc(NC(=O)CSc2ccc(-c3ccc4c(c3)OCO4)nn2)cc1` [Compound 7206282] yielded an EC50 of 10.7 µM.

Compound `O=C(/C=C/c1ccco1)c1ccc(NC(=O)C23CC4CC(CC(C4)C2)C3)cc1` [Compound 7424594] gave an EC50 of 10.3 µM. This EC50 and that of the compound before are within 1.5-fold of each other.

Turning to `Cc1ccc(-n2c(=O)c(C#N)cc3c(=O)n4cccc(C)c4nc32)cc1` [Compound 9550569], the response was half-maximal at 8.22 µM (EC50). This EC50 and that of the compound before are within 1.5-fold of each other.

For `Cc1cc(C)cc(NC(=O)Cn2c(=O)oc3cc(S(=O)(=O)N4CCC(C)CC4)ccc32)c1` [Compound 9551541], the EC50 is 8.23 µM. The EC50 values of the last two compounds are within 1.5-fold of each other.

Consider `O=C(Nc1ccc(Cl)cc1)[C@@H]1[C@@H]2C(=O)N(c3ccc(Cl)cc3Cl)C(=O)[C@@H]2[C@H]2C=CC=NN21` [Compound 9551824], for which the EC50 is 22.3 µM. This EC50 lies about 2.7-fold higher than the previous one.

Take `COc1ccc(/C=N/NC(=O)C2c3ccccc3-c3ccccc32)cc1` [Compound 9557044]: the EC50 came to 10.5 µM.

In turn, `COc1ccc2cc(/C=N/NC(=O)c3ccc(CN(c4ccc(C)c(C)c4)S(C)(=O)=O)cc3)c(Cl)nc2c1` [Compound 9564362] had an EC50 of 12.2 µM.

`COc1cccc2cc(/C(C)=N/Nc3nc(-c4cc(C)ccc4C)cs3)c(=O)oc12` [Compound 9594695] returned an EC50 of 17.5 µM.

Compound `O=[N+]([O-])c1ccc(-c2ccc(/C=N/c3c(-c4ccco4)nc4ccccn34)o2)c(Cl)c1` [Compound 9617832] yielded an EC50 of 11.7 µM.

In turn, `Cc1cc(=O)oc2cc(OCC(=O)N/N=C/c3ccccc3[N+](=O)[O-])ccc12` [Compound 9619223] came in with an EC50 of 35.7 µM.

In the case of `Cc1ccc(NC(=O)COc2ccc(/C=C3/SC(=Nc4ccccc4)N(Cc4cccnc4)C3=O)cc2)cc1` [Compound 11840403], the response was half-maximal at 13.4 µM (EC50).

For `CCOc1ccc(-c2nnc3ccc(SCC(=O)Nc4nc5ccc(C)cc5s4)nn23)cc1` [Compound 12005911], the EC50 stood at 12.1 µM.

With `COc1ccc(C(=O)CSc2nnc(NC(=O)C3CC(=O)N(c4ccccc4)C3)s2)cc1` (stereo not shown) [Compound 12006105], the EC50 was 9.85 µM.
